Like-named read-outs stand apart in the source and are kept apart here.
Key:
HIV-1 virus [1] = experiment: Action of the products on the cytopathogenic effect of the HIV-1 virus in MT4 cells; format: cell-based, HIV-1 virus (LAV strain); conditions: for minimal effective concentration: Human immunodeficiency virus 1, MT4, 168 h
Method: Each product was dissolved in DMSO at a concentration of 10^-3 M (stock solution), then in the culture medium immediately before use. The solution thus obtained was sterilized by filtration on a 0.22μ Millipore, then successive dilutions were made in the culture medium.
The line of MT4 cells is cultivated at a concentration of 3×10^5 cells/ml in a RPM1640 medium containing 10% of fetal calf serum, 1% of antibiotics and 1% of glummine.
The action of the products on the cytopathogenic effect of the HIV-1 virus was studied with the aid of the line of MT4 cells. This line is a line of human T cells transformed by the HTLV-1 virus. These cells are particularly sensitive to the HIV-1 virus since 6 to 7 days after superinfection by tiny quantities of HIV-1 virus, they show a considerable cytopathogenic effect leading to the death of 10 to 80% of the cells. The cytopathogenic effect is directly correlated with the infection of the cells by the virus, with its intracellular replication and with the expression of the viral antigens by the cells. An inhibition of this effect thus corresponds to an inhibition of the multiplication of the HIV-1 virus.
It is a question of supernatants of lymphoblastoid T cells (CEM line) infected by the HIV-1 virus (LAV strain). The activity of the undiluted viral preparation used for the human lymphocytes was 20000 cpm/ml.
d) Action of the products on the cytopathogenic effect of the HIV-1 virus in the case of the MT4 cells. Study of the treatment after viral absorption.
The MT4 cells were infected by 100 μl of HIV-1 virus for 3.10^5 cells in a volume of 1 ml. […]
At day +3, the cell suspensions were restored to 3.10^5 cells/ml after dilution with fresh medium. The product was added at the corresponding doses.
At day +7, the cytopathogenic effect was evaluated with the microscope after staining with trypan blue.

HIV-1 virus [2] = experiment: Replication of HIV-1 in macrophages of sero-negative donors, continuous culture (reverse transcriptase activity); format: cell-based
Method: The drugs 6651, AZT, 6714 and ddT were diluted in DMSO.
The virus HIV-1 utilized is derived from a culture supernatant of CEM-LAV 1 cells; these latter are maintained by the addition at each passage (every 3 or 4 days) of uninfected CEM cells. The titre of the virus in the clarified culture supernatant is higher than 10^6 cpm/ml in reverse transcriptase activity and 10^3 infectious units/ml on lymphocytes of sero-negative donors.
The macrophages were obtained from a deleucocytation pocket. The mononucleated cells were separated on a Ficoll^R gradient. The cells were adjusted to 50.10^6 cells/ml in the RPMI 1640 medium (MBA) containing 20% fetal calf serum (Flow), 10 mM Hepes (Sigma), 1% of PSN and 1% of glutamine (Gibco). After 1 h of incubation at 4° C. with gentle shaking, the macrophages agglutinate among themselves. The agglutinated macrophages are sedimented for 15 mn at 4° C. The supernatant containing an enrichment in lymphocytes was removed and the pellet enriched in macrophages was diluted to 5.10^6 cells/ml in the medium previously described. The cell suspension was then placed in Petri dishes of 60 mm diameter and placed at 37° C. for 1 h 30. The unattached cells are removed and the washed cell carpet was then detached with a scraper. The cells thus recovered were used directly for the study.
For this study, the production of HIV-1 virus by infected macrophages in the presence or absence of the drugs 6714 or ddT and 6651 or AZT were monitored either in continuous culture for at least 30 days or after lysis of the macrophages at day +14 and infection of lymphocytes by this lysate.
For each test, 15.10^6 cells were or were not infected with the HIV-1 virus (6000 cpm/10^6 cells). After 1 h of absorption at 37° C., the cells were placed in 6-wells Costar plates and 5.10^-5 M or 10^-5 M of the drugs 6714 and ddT and 10^-5 M, 10^-6 M or 10^-7 M of the drugs 6651 and AZT were added to the culture medium. The medium was changed every 3 or 4 days and the reverse transcriptase activity was determined in the culture supernatant. The drugs were added at each passage to the culture medium at the respective concentrations indicated above.
3) Measurement of the reverse transcriptase activity
The reverse transcriptase activity is assayed starting from 1 ml of culture supernatant concentrated 100 times by ultra-centrifugation for 5 mn at 95.000 rpm (Rotor TL 100^R Beckman).
The pellet is resuspended in 10 μl of NTE Triton^R ×100 0.1%.
After 1 h at 37° C., the acid-insoluble products are precipitated by 20% trichloroacetic acid, filtered onto 0.45μ Millipore^R and the B radioactivity is measured with the aid of a Kontron scintillation counter.

[3] = tested on: recombinant retrovirus of murine origin (MoMLV); experiment: Residual virus (clones of βgal+ cells) after infection of mouse 3T3 test cells with LacZ recombinant MoMLV retrovirus; format: cell-based; conditions: 3T3 cells; for residual virus (% not inhibited) at 10 µM: 10^-5 M; for residual virus (% not inhibited) at 1 µM: 10^-6 M
Method: The virus used is a recombinant retrovirus of murine origin (MoMLV) in which a reporter gene (LacZ) has been introduced.
Fixed amounts of LacZ recombinant retroviruses are placed in the presence of mouse infectable test cells (3T3) with or without the product to be tested. To each recombinant retrovirus corresponds a clone of β gal^+ cells. The number of clones of βgal^+ cells is read 48 hours after the infection. The % of the residual virus (not inhibited by the product) is indicated in the following table (mean of several independent experiments): […]

[4] = NIH3T3, 48 hours after infection, mean of several experiments, read-out: % of the residual virus (not inhibited by the product)

SMILES | Cytopathogenic Effect at Day +7 (HIV-1 virus [1]; 5 × 10^-6 M, Experiment No. 1) | Cytopathogenic Effect at Day +7 (HIV-1 virus [1]; 5 × 10^-6 M, Experiment No. 2) | Cytopathogenic Effect at Day +7 (HIV-1 virus [1]; 5 × 10^-7 M, Experiment No. 1) | Cytopathogenic Effect at Day +7 (HIV-1 virus [1]; 5 × 10^-7 M, Experiment No. 2) | Cytopathogenic Effect at Day +7 (HIV-1 virus [1]; 10^-5 M, Experiment No. 1) | Cytopathogenic Effect at Day +7 (HIV-1 virus [1]; 10^-5 M, Experiment No. 2) | Cytopathogenic Effect at Day +7 (HIV-1 virus [1]; 10^-6 M, Experiment No. 1) | Cytopathogenic Effect at Day +7 (HIV-1 virus [1]; 10^-6 M, Experiment No. 2) | minimal effective concentration (HIV-1 virus [1]; first experiment, MT4 cells, read-out: concentration at which the product inhibits the cytopathogenic effect) [µM] | minimal effective concentration (HIV-1 virus [1]; second experiment, MT4 cells, read-out: concentration at which the product inhibits the cytopathogenic effect) [µM] | proliferation of the HIV-1 virus in the macrophages (HIV-1 virus [2]; 10^-5 M, 10^-6 M and 10^-7 M) | residual virus (% not inhibited) at 100 µM ([3]; NIH3T3, 10^-4 M, 48 hours after infection, mean of several experiments, read-out: % of the residual virus (not inhibited by the product)) [%] | residual virus (% not inhibited) at 10 µM [3, 4] [%] | residual virus (% not inhibited) at 1 µM [3, 4] [%] | minimal effective concentration (HIV-1 virus [1]; read-out: concentration at which the product inhibits the cytopathogenic potency of the virus) [µM] | proliferation of the HIV-1 virus in the macrophages (HIV-1 virus [2]; 5.10^-5 M and 10^-5 M) | residual virus (% not inhibited) at 0.1 µM ([3]; NIH3T3, 10^-7 M, 48 hours after infection, mean of several experiments, read-out: % of the residual virus (not inhibited by the product)) [%] | retroviral activity (in words) ([3]; recombinant MoMLV)
CCCCCCCCCCCCCCCCOP(=O)(OC[C@H]1OC(O)[C@H](O)[C@@H](O)[C@@H]1O)OC[C@H]1O[C@@H](n2cc(C)c(=O)[nH]c2=O)C[C@@H]1N=[N+]=[N-] (some centres unmarked) [compound 6651, 6-glucosyl hexadecyl 5'-(3'-azido) thymidinyl phosphate] | - | + (100% death of the cells at day +7) | + (100% death of the cells at day +7) | + (100% death of the cells at day +7) | - | - | - | + (100% death of the cells at day +7) | 1 | 10 | block the proliferation of the HIV-1 virus in the macrophages | 11 | 65 | 94 |  |  |  | 
Cc1cn([C@H]2CC[C@@H](COP(=O)(O)OC[C@H]3OC(O)[C@H](O)[C@@H](O)[C@@H]3O)O2)c(=O)[nH]c1=O (some centres unmarked) [compound 6714, 6-glucosyl 5'-(3'-deoxy)-thymidinyl phosphate] |  | + (100% death of the cells at day +7) |  |  |  | - |  | + (100% death of the cells at day +7) |  |  |  |  | 4 | 12 | 10 | block the proliferation of the HIV-1 virus in the macrophages | 66 | active by themselves
